This experiment concerns the target T1, recombinant human transglutaminase 2 (Homo sapiens, UniProt P21980).
T1 construct: purchased Zedira T022
T1 sequence (P21980 1-687): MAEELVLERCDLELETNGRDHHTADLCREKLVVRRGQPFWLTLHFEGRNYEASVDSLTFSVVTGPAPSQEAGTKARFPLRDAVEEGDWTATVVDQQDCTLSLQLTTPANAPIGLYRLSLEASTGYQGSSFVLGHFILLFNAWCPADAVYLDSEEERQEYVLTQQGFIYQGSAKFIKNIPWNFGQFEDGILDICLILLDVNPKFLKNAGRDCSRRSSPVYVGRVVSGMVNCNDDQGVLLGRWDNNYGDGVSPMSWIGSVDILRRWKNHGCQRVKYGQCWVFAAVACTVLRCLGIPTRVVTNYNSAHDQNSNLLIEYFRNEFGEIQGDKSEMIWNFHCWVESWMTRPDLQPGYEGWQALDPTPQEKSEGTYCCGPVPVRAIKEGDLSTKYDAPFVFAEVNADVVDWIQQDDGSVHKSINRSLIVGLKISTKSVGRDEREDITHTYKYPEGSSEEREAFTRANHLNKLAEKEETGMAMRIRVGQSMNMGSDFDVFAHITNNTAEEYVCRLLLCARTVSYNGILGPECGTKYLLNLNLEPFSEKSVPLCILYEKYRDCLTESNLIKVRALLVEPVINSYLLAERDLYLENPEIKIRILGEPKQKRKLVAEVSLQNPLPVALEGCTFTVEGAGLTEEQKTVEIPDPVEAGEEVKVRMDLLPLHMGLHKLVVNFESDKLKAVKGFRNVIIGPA
The experiment can be described thus: Transglutaminase assay (DCC-assay): incorporation of dansylcadaverine into dimethylcasein. Type of experiment: biochemical. The gist of the method:
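Recombinant human TG2 (10 nM final) incorporates dansylcadaverine into N,N-dimethylcasein. Reaction mix: 50 mM Tris-HCl, 10 mM CaCl2, 10 mM glutathione, 2.5% glycerol, 16.7 µM dansylcadaverine, 4 µM dimethylcasein, 200 mM NaCl, pH 8.0. Fluorescence (ex 330/em 500 nm) was followed 30 min at 37 °C; the 20–30 min slope, expressed as % of 2% DMSO control, gave IC50.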

As a reminder, the IC90 is the concentration at which the effect reaches the 90% level. For orientation: IC50 means the concentration that inhibits the measured activity by half.

The structures appear in SMILES notation. Where two headings read alike, the source gives them in different places.

In the case of `CNC(=O)C(=O)CC[C@H](NC(=O)c1oc2ccccc2c1C)C(=O)Nc1cccn(CC(=O)NC2C3CC4CC(C3)CC2C4)c1=O` (stereo partly drawn) [II-3, (S)-N1-(1-(2-(2-adamantylamino)-2-oxoethyl)-2-oxo-1,2-dihydropyridin-3-yl)-N6-methyl-2-(3-methylbenzofuran-2-carboxamido)-5-oxohexanediamide], under “TG2, table with the PK study”, the 90% effect concentration (IC90) came out at 180 nM. In addition, the 50% inhibitory concentration (IC50) (TG2, table with the PK study, read-out: IC50) came out at 23 nM and the half-maximal inhibitory concentration (IC50) (recombinant human TG2 10 nM, dansylcadaverine incorporation into dimethylcasein, read-out: IC50 TG2) is below 40 nM.

(Values after patent US20240383856A1 (Zedira GmbH, priority 2021, published 2024).)
